Measurements published in ChEMBL document CHEMBL2202954, “The effect of PLC-γ2 inhibitors on the growth of human tumour cells” (2012).

Columns and labels:
Format in all cases: functional
MDA-MB-231 = assay: Cytotoxicity against human MDA-MB-231 cells assessed as cellular growth at 10 uM by SRB assay
A498 = assay: Cytotoxicity against human A498 cells assessed as cellular growth at 10 uM by SRB assay
HOP-92 = assay: Cytotoxicity against human HOP92 cells assessed as cellular growth at 10 uM by SRB assay
HCT-116 = assay: Cytotoxicity against human HCT116 cells assessed as cellular growth at 10 uM by SRB assay
MDA-MB-435 = assay: Cytotoxicity against human MDA-MB-435 cells assessed as cellular growth at 10 uM by SRB assay
SF-268 = assay: Cytotoxicity against human SF268 cells assessed as cellular growth at 10 uM by SRB assay
COLO 205 = assay: Cytotoxicity against human COLO205 cells assessed as cellular growth at 10 uM by SRB assay
UO-31 = assay: Cytotoxicity against human UO31 cells assessed as cellular growth at 10 uM by SRB assay
HOP-62 = assay: Cytotoxicity against human HOP62 cells assessed as cellular growth at 10 uM by SRB assay
OVCAR-5 = assay: Cytotoxicity against human OVCAR5 cells assessed as cellular growth at 10 uM by SRB assay
SR = assay: Cytotoxicity against human SR cells assessed as cellular growth at 10 uM by SRB assay
U-251 = assay: Cytotoxicity against human U251 cells assessed as cellular growth at 10 uM by SRB assay
SN12C = assay: Cytotoxicity against human SN12C cells assessed as cellular growth at 10 uM by SRB assay
T47D = assay: Cytotoxicity against human T47D cells assessed as cellular growth at 10 uM by SRB assay
SK-OV-3 = assay: Cytotoxicity against human SKOV3 cells assessed as cellular growth at 10 uM by SRB assay
A549 = assay: Cytotoxicity against human A549 cells assessed as cellular growth at 10 uM by SRB assay
HCC 2998 = assay: Cytotoxicity against human HCC2998 cells assessed as cellular growth at 10 uM by SRB assay
CCRF-CEM = assay: Cytotoxicity against human CCRF-CEM cells assessed as cellular growth at 10 uM by SRB assay
OVCAR-4 = assay: Cytotoxicity against human OVCAR4 cells assessed as cellular growth at 10 uM by SRB assay
IGROV-1 = assay: Cytotoxicity against human IGROV1 cells assessed as cellular growth at 10 uM by SRB assay

Compound	Activity (MDA-MB-231) [%]	Activity (A498) [%]	Activity (HOP-92) [%]	Activity (HCT-116) [%]	Activity (MDA-MB-435) [%]	Activity (SF-268) [%]	Activity (COLO 205) [%]	Activity (UO-31) [%]	Activity (HOP-62) [%]	Activity (OVCAR-5) [%]	Activity (SR) [%]	Activity (U-251) [%]	Activity (SN12C) [%]	Activity (T47D) [%]	Activity (SK-OV-3) [%]	Activity (A549) [%]	Activity (HCC 2998) [%]	Activity (CCRF-CEM) [%]	Activity (OVCAR-4) [%]	Activity (IGROV-1) [%]
Nc1c(C(=O)Nc2ccccc2F)sc2nc3c(cc12)C(=O)CCC3	48.88	-1.01	53.65	32.04	-25.93	54.87	5.76	76	42.7	71.12	36.7	31.63	49.76	40.19	13.58	22.02	43.8	26.78		
Cc1ccccc1NC(=O)c1sc2nc3c(cc2c1N)C(=O)CCC3	61.61	31.28		34.55	-12.89	65.36	6.12	77.51	38.2	80.78	34.35	48.96	64.53	43.92	22.08	37.59	67	30.28	67.57	77.05
Nc1c(C(=O)Nc2ccc(Cl)c(Cl)c2)sc2nc(-c3cccs3)ccc12	84.38			75.19	83.41	85.77	115.1	83.99	100.28	94.42	56.67	83.86	89.08	85.21	105.1	54.62	98.35	82.99	55.74	122.32
Cc1ccc(S(=O)(=O)NC2=NC(=O)/C(=C\c3ccccc3)S2)cc1	100.89	11.33		111.6	110.94	99.46		90.79	100.56	111.88	95.9	98.58	99.26	100.5	107.71	103.33	106.96	92.01	96.34	124.8
Cc1ccc(C2=N/C(=C\c3ccccc3)C(=O)O2)cc1	105.18			114.29	102.12	98.83	122.06	102.89	108.81	95.31	88.58	107.92	98.61	105.06	109.52	107.01	99.84	94.95	108.84	
O=S(=O)(Oc1ccc(-c2cnc3ccccc3n2)cc1)c1ccccc1	105.17	60.82		94.15	96.88	98.77		94.43	106.15	101.99	85.09	92.1	95.17	86.45	106.76	95.36	99.83	85.64	96.73	130.45
O=S(=O)(Oc1ccc(-c2cnc3ccccc3n2)cc1)c1ccc2ccccc2c1	103.12	85.21	101.74	94.69	95.36	104.06	121.42	118.94	104.1	109.35	93.61	104.05	92.04	91.09	102.69	102.43	107.48	90.35		
Cc1ccc2c(c1)N/C(=C/C(=O)c1ccc(Cl)cc1)C(=O)O2	86.67			105.71	105.53	105.3	118.18	94.15	113.93	106.86	110.86	100.94	93.53	106.85	110.03	92.75	108.44	65.56	88.88	136.06
O=C(Nc1ccc2oc(=O)ccc2c1)c1ccc(-c2ccc(Cl)c(Cl)c2)o1	86.89	101.16		57.64	88.86	85.02	121.29	65.88	109.12	99.5	89.98	92.91	86.83	81.58	107.01	50.07	100.84	57.99	91.52	106.69
Nc1c(C(=O)Nc2cccc(Cl)c2)sc2nc3c(cc12)C(=O)CCC3	43.9	49.32		27.38	-39.08	63.09	10.22	57.11	47.04	58.33	39.11	46.41	54.42	52.94	35.17	28.25	8.27	13.46	60.44	52.39
O=C(Nc1ccc(S(=O)(=O)Nc2nccs2)cc1)c1cccs1	103.15	114.15		108.46	110.15	114.27	135.23	95.49	114.96	112.09	101.57	101.85	103.07	105.19	117.21	96.04	108.36	89.52	103.47	120.24
O=c1/c(=C/c2ccc(Cl)cc2Cl)sc2nc(-c3ccccc3)nn12	98.54	112.37	104.34	106.75	106.5	107.16	132.3	114.46	120.5		94.63	103.07	94.22	90.03	109.75	107.72	117.6	95.93		130.42
CC1(C)CC(=O)c2cc3c(N)c(C(=O)Nc4ccccc4Cl)sc3nc2C1	116.03	71.33	103.08	113.5	105.18	122.6	125.06	117.05	116.65			102.37	104.5	99.6	107.93	102.64	107.92	97.05		126.77
COc1ccc2[nH]c(C(=O)NCc3ccccc3)cc2c1	91.31	92.89		94.88	104.78	114.89	123.53	75.52	104.71	116.46	91.93	98.45	97.3	85.87	108.16	100.34	104.4	85.19	93.84	99.05
O=C(NCc1ccc(Cl)cc1)c1[nH]c2ccccc2c1Cl	106.69	76.55		103.25	103.29	105.1	104.86	80.6	101.61	116.56		105.3	99.33	96.29	98.27	94.27	104.03	93.68	100.82	106.79
Oc1ccccc1-c1nc(-c2cccs2)no1	71.74	105.68	50.86	104.63	112.76	112.74	111.09	71.94	88.78			89.74	90.61	76.43	99.86	99.05	83.27	91.77		86.9
Clc1ccc(-c2nc(-c3cccs3)no2)cc1	81.39	93.08		92.37	111.2	105.52	113.89	74.13	97.84	108.26	85.71	90.3	97.08	66.67	106.04	94.07	32.91	78.29	65.77	
O=C(Nc1nc2ccc(Cl)cc2s1)c1ccc(Cl)cc1	98.56	94.69		98.42	90.92	112.46	105.29	97.6	103.16	115.32	94.31	94.55	122.51	93.28	89.31	94.26	106.96	96.23	100.6	119.2
